According to article PMC9532535 (Acta Pharmaceutica Sinica. B, 2022):

Experiments:
[1] = Measurement of critical aggregation concentration; assay type: physicochemical; conditions: in water, 37 °C overnight, ACQ probe P2 fluorescence
[2] = test system: Caco-2 monolayer; test: Transport across the Caco-2 monolayer; assay type: in vitro ADME; conditions: Caco-2 monolayer without Raji
[3] = ref [37]; cited from earlier work

Compound | CAC (critical aggregation concentration) [1] [mmol/L] | transport of PTX in the Caco-2 monolayer [2] | plasma protein binding [3]
CCCCCCCCCCCCCCCCCC(=O)[O-].C[N+](C)(C)CCO [Choline stearate] | 0.37 ± 0.02 | – | –
CC(=O)O[C@H]1C(=O)[C@@]2(C)[C@H]([C@H](OC(=O)c3ccccc3)[C@]3(O)C[C@H](OC(=O)[C@H](O)[C@@H](NC(=O)c4ccccc4)c4ccccc4)C(C)=C1C3(C)C)[C@]1(OC(C)=O)CO[C@@H]1C[C@@H]2O [PTX, paclitaxel] | – | negligible | greater than 90%
Choline oleate | 0.19 ± 0.01 | – | –
